≈ marks a conversion by molar mass, not a printed value. Where a name gives a salt, the structure may show the parent alone.
Tests used:
Type in all cases: physicochemical
[1] = Solubility in 2-pyrrolidone; details: 25° C., mixed for 30 min, Licofelone in supernatant by HPLC
Method: Approx. 500 mg Licofelone (free acid) or the corresponding salt (examples 1A and 2) were suspended in 1 ml 2-pyrrolidone and mixed for 30 min. The temperature was maintained at 25° C. After centrifugation the concentration of Licofelone in the supernatant was determined by HPLC with UV detection.

[2] = Solubility in Fasted State Simulated Intestinal Fluid (FaSSIF); details: after 15 min, HPLC; for solubility in 30 ml FaSSIF, conc.: 30 ml FaSSIF pH 6.5, approx. 50 mg (as free acid); for solubility in 100 ml FaSSIF, conc.: 100 ml FaSSIF pH 6.5, approx. 50 mg (as free acid)
Method: FaSSIF was prepared according to the literature (e.g. Marques M, Dissolution Technologies, May 2004). […] The pH value was adjusted to 6.5 using 1 N NaOH. The ready-to-use FaSSIF was prepared by dissolving 3.3 g sodium taurocholate in 500 ml blank FaSSIF. Then, 11.8 ml of a solution of 100 mg/ml lecithin in dichloromethane was added and the thereafter, the solvent dichloromethane was removed under vacuum at 40° C. Thereafter the clear solution was transferred into a graduated 2 l flask and made up to volume with blank FaSSIF.
Solubility studies were performed with Licofelone (free acid), Licofelone tromethamol salt (example 2) and Licofelone choline salt (example 1A). The test articles were placed in a beaker, FaSSIF and a magnetic stirring bar were added and the mixture was stirred using a magnetic stirrer. After 15 min, samples were withdrawn, filtered and the clear filtrate was analyzed by HPLC to determine the concentration of Licofelone.
The dissolution test was performed in 100 ml FaSSIF and 30 ml FaSSIF. The lower volume was selected in order to simulate the physiological ratio between drug and intestinal fluid volume.

[3] = Storage stability at elevated temperatures (sum of known and unknown impurities)
Method: The raw materials (a) Licofelone, (b) Licofelone choline salt (example 1A) and (c) Licofelone tromethamine salt (example 2) were stored in open containers at 40, 50, 60 and 70° C. as well as at 40° C. with 75% relative humidity. Samples were analyzed after storage periods of 4 and 8 weeks. A validated method was applied for quantification of the five known impurities as well as of unknown impurities.

[4] = stored at elevated temperatures for several weeks

solubility [1] | solubility in 30 ml FaSSIF, conc. [2] | solubility in 100 ml FaSSIF, conc. [2] | stability on storage ([3]; stored at moderately elevated temperatures for several weeks) | SMILES | stability on storage [3, 4]
47000 µg/mL (≈ 124000 µM) | 7 µg/mL (≈ 18.4 µM) | 7 µg/mL (≈ 18.4 µM) | – | CC1(C)Cc2c(-c3ccccc3)c(-c3ccc(Cl)cc3)c(CC(=O)O)n2C1 [Licofelone (free acid), 6-(4-chlorophenyl)-2,2-dimethyl-7-phenyl-2,3-dihydro-1H-pyrrolizin-5-ylacetic acid, reference compound] | undergoes degradation
274000 µg/mL | 222 µg/mL | 228 µg/mL | more stable than the free acid | CC1(C)Cc2c(-c3ccccc3)c(-c3ccc(Cl)cc3)c(CC(=O)O)n2C1 [Licofelone choline salt, 6-(4-chlorophenyl)-2,2-dimethyl-7-phenyl-2,3-dihydro-1H-pyrrolizin-5-ylacetic acid choline salt] | –
66000 µg/mL | 149 µg/mL | 165 µg/mL | – | CC1(C)Cc2c(-c3ccccc3)c(-c3ccc(Cl)cc3)c(CC(=O)O)n2C1 [Licofelone tromethamine salt, 6-(4-chlorophenyl)-2,2-dimethyl-7-phenyl-2,3-dihydro-1H-pyrrolizin-5-ylacetic acid tromethamine salt] | more stable than the free acid and the choline salt

Source: US8519155B2, “Choline and tromethamine salt of licofelone” (c-a-i-r biosciences GmbH, priority 2008, dated 2013)
